Target: T1, hTac1-hM4D (Homo sapiens, UniProt P08173, A203G/Y113C)
T1 construct: expressed in transfected cells; host or cells: rat trigeminal ganglion neurons in vivo, viral vector with Tac1 promoter
T1 sequence (P08173 1-479 Y113C/A203G): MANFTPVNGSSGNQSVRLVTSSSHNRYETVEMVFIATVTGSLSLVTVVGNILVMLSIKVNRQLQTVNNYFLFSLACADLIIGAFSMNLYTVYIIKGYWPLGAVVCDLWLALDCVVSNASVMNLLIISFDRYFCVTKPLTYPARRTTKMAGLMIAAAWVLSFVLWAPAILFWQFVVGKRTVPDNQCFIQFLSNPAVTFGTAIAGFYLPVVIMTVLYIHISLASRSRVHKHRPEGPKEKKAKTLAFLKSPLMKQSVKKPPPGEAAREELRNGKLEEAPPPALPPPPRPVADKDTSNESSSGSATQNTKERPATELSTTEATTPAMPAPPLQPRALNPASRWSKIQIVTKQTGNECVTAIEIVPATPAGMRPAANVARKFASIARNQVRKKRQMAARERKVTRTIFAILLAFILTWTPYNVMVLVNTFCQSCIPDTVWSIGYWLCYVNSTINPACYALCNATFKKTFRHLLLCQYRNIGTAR
Test: Pin-prick response score, Tac1-DREADD (hTac1-hM4D) in trigeminal ganglion, non-CCI animals
Type: in vivo, rat
Settings: females, n=7 per group, CNO i.p. vs vehicle
From the text: The effects of Tac1-DREADD activation with CNO on pin-prick response score were also studied (FIG. 8). All animals (female, n=7 per group) had Tachykinin 1-DREADD (hTac1-hM4D) injected into the trigeminal ganglion unilaterally. Average pin-prick response scores (±SEM) were plotted following intraperitoneal (i.p.) administration of CNO or vehicle.

C[N+]1([O-])CCN(C2=Nc3cc(Cl)ccc3Nc3ccccc32)CC1 [CNO, clozapine N-oxide]
pin-prick response score, contralateral vibrissal pad (F=0.01, P=0.9): no significant effect
pin-prick response score, ipsilateral vibrissal pad (F=0.1, P=0.8): no significant effect

From patent US20190046662A1, “Compositions and Methods for Treating Neuropathic Pain” (Rutgers, The State University of New Jersey, priority 2016, published 2019)
